Legend:
[1] = system: Bbs2−/− mouse model of BBS; test: GL1 analysis in tissues of Bbs2−/− mice; type: in vivo; conditions: 0.033% w/w in feed from 1 to 6 months of age
From the text: (§1) A Bbs2^−/− mouse model has been described by Nishimura D Y et al. (Proc Natl Acad Sci, 101:16588-16593 (2004)) with exons 5-14 of Bbs2 replaced with a neomycin cassette. Mice were backcrossed into 129/SvJ background. Treated Bbs2^−/− mice were fed ad libitum with 0.033% w/w of Compound 1 incorporated in feed from the age of 1 month to 6 months. Bbs2^−/− and Wt control animals were fed regular 5053 chow (LabDiet). To establish metabolic disease, Bbs2^−/− mice were left untreated until four-months of age, and then treated with Compound 1 incorporated into feed for the fifth and sixth months.
Quantitative analysis of glycosylceramide was performed by liquid chromatography and tandem mass spectrometry (LC/MS/MS). Briefly, 100 mg of tissue were homogenized in 1 ml of water with Mini Beadbeater (BioSpec Products, Inc., Bartlesville, OK). 10 μl of homogenate was extracted with 1 ml of 90% of 96:2:1:1 acetonitrile/methanol/acetic acid/water (v/v/v/v) (mobile phase A) and 10% of 98:1:1 methanol/acetic acid/water (v/v/v) (mobile phase B); both contained 5 mM ammonium acetate. The samples were placed on a VX-2500 tube vortexer (VWR International, LLC, MA) for 5 min and then centrifuged for 4 min at 8,400 rpm (Beckman Coulter, Inc., IN). […] Quantitation was performed using GL1 standard (Glucocerebrosides, Gaucher's spleen; Matreya, LLC, Pleasant Gap, PA).

[2] = system: Bbs2−/− mice; test: Liver abnormalities in Bbs2−/− mice (liver weight, ALT, triglycerides); type: in vivo, mouse; conditions: feed from 1 to 6 months of age
From the text: as §1
Triglyceride and ALT levels were measured using a VetACE™ analyzer (Alfa Wasserman, West Coldwell, NJ).

[3] = system: Bbs2−/− mice; test: Olfaction (buried treat test) and main olfactory epithelium immunofluorescence in Bbs2−/− mice; type: in vivo, mouse; conditions: feed from 1 to 6 months of age
From the text: as §1
Animal olfaction was tested using a protocol adapted from Yang M. et al. (Curr Protoc Neurosci, DOI:10.1002/0471142301.ns0824s48 (2009)). Before testing, animals were acclimatised for three days and then fasted for 18 hours in cage with Alpha Dri bedding. Treat (Bioserv Supreme Mini-Treats, Chocolate flavor) was buried 1 cm deep in a clean cage with 3 cm deep bedding. Animals were placed in cage and time was recorded when treat was found and bitten into.
Paraffin-embedded samples of nasal cavities from Wt and Bbs2^−/− mice were prepared and analysed as described supra. The primary antibodies used were acetylated tubulin (Cell Signaling Technology), cytokeratin 14 (Protein Tech), SRY-Box 2 (Cell Signaling Technology), doublecortin (Cell Signaling Technology), and olfactory marker protein (Wako).

[4] = system: Bbs2−/− immortalized kidney epithelial cells; test: Cell culture and primary cilium staining (cilia length, GSL localization); type: cell-based, mouse; conditions: serum free, compound for 6-24 hours
Protocol: Cell Culture and Primary Cilium Staining
Wild type and Bbs2^−/− kidney epithelium cell lines were established and maintained as described previously (See Natoli T et al., Nat Med, 16:788-792 (2010); and Humes H D. et al., Am J Kidney Dis, 39:1078-1087(2002)). Cells were cultured on collagen I coated glass slides in DMEM containing 1% penicillin/streptomycin, 10% FBS. To determine the effect of compounds on cilia and lipid localization, cells were cultured in serum free media for 24 hours followed by the addition of Compound 1 for 6-24 hours. Cells were then fixed with 4% paraformaldehyde followed by immunofluorescence with anti-GM3 (Creative Biolabs), anti-ceramide (Sigma Aldrich), anti-GM1 (Invitrogen), and anti-acetylated tubulin (Cell Signaling) antibodies. Cilia length was quantified using Metamorph software.

CC(C)(NC(=O)OC1CN2CCC1CC2)c1cccc(-c2ccc(F)cc2)c1 (stereo not shown) [Compound 1, 1-azabicyclo[2.2.2]oct-3-yl [2-(4′-fluorobiphenyl-3-yl)propan-2-yl]carbamate]
levels of GL1 in the brain, kidney, liver and serum [1]: reduction
liver weight [2]: normalized
serum ALT [2]: normalized
serum triglycerides [2]: normalized
adenylate cyclase III (ACIII) in the MOE [3]: increase in ACIII
cilia in the MOE (acetylated tubulin) [3]: preservation/restoration of the cilia in the MOE
differentiation in MOE (immature vs mature neurons) [3]: correction of this phenotype to resemble that of wild type animals
olfaction defect (time to find a buried treat) [3]: restored
GM3 localization [4]: restores GM3 localization similar to what is observed in Wt cells
cilia length [4]: elongates cilia
